Measured values as given in article PMC6979384, “Characterization of the plant homeodomain (PHD) reader family for their histone tail interactions” (Epigenetics & Chromatin, 2020).

Legend:
Test in all cases: Histone peptide microarray
Type in all cases: binding, human
CHD4 (PPCC) = settings: sheet "Array Heatmap"; GST-tagged CHD4 (PPCC); arrays performed twice, total replicate number n = 4
Description: (§1) To more comprehensively define the histone interactions of the 31 PHD readers identified from the domain microarray analyses, we probed each on an alternate microarray platform containing a library of 293 synthetic histone peptides with single or combinatorial PTMs (Additional file 2: Figure S4 and Additional file 3: Table S2).
(§2) The 31 GST-tagged PHD readers identified in the PHD finger domain array were expressed and purified as previously. Histone peptide arrays and peptide pulldown assays were conducted as recently described (specifically, the optimized protocol from Petell et al. for the former).
(§3) Supplementary file 13072_2020_328_MOESM3_ESM.xlsx: Additional file 3: Table S2. […] Excel Tab Peptide List is a compiled list of the entire 293 histone peptide library with amino acid sequence ranges. […] Each number corresponds to the peptide number designated in Peptide List. Excel Tab Average Signals is a compiled set of binding data: chromatin reader at 0.5 μM vs. entire 293 peptide library. Data is presented as the average and standard deviation of 4 replicates. The average signals are colored to indicate signal intensity with green being strong and white being weak/low. […] Key: red= stronger relative binding; blue = weaker relative binding. Excel Tab Array info summary is a table summarizing the domains, sequence coverage, array signal range, and noise for each of the GST-tagged readers assayed on the peptide microarrays.

AIRE (PP) = settings: sheet "Array Heatmap"; GST-tagged AIRE (PP); arrays performed twice, total replicate number n = 4
Description: as §1, §2, §3

ING5 = settings: sheet "Array Heatmap"; GST-tagged ING5; arrays performed twice, total replicate number n = 4
Description: as §1, §2, §3

BPTF (PB) = settings: sheet "Array Heatmap"; GST-tagged BPTF (PB); arrays performed twice, total replicate number n = 4
Description: as §1, §2, §3

PHF21A = settings: sheet "Array Heatmap"; GST-tagged PHF21A; arrays performed twice, total replicate number n = 4
Description: as §1, §2, §3

DPF2 (PPC2W2) = settings: sheet "Array Heatmap"; GST-tagged DPF2 (PPC2W2); arrays performed twice, total replicate number n = 4
Description: as §1, §2, §3

CHD5 (PPCC) = settings: sheet "Array Heatmap"; GST-tagged CHD5 (PPCC); arrays performed twice, total replicate number n = 4
Description: as §1, §2, §3

TAF3 = settings: sheet "Array Heatmap"; GST-tagged TAF3; arrays performed twice, total replicate number n = 4
Description: as §1, §2, §3

KDM7A = settings: sheet "Array Heatmap"; GST-tagged KDM7A; arrays performed twice, total replicate number n = 4
Description: as §1, §2, §3

ING1 = settings: sheet "Array Heatmap"; GST-tagged ING1; arrays performed twice, total replicate number n = 4
Description: as §1, §2, §3

PHF13 = settings: sheet "Array Heatmap"; GST-tagged PHF13; arrays performed twice, total replicate number n = 4
Description: as §1, §2, §3

MLL5 = settings: sheet "Array Heatmap"; GST-tagged MLL5; arrays performed twice, total replicate number n = 4
Description: as §1, §2, §3

KDM4C (TTP) = settings: sheet "Array Heatmap"; GST-tagged KDM4C (TTP); arrays performed twice, total replicate number n = 4
Description: as §1, §2, §3

PHF8 = settings: sheet "Array Heatmap"; GST-tagged PHF8; arrays performed twice, total replicate number n = 4
Description: as §1, §2, §3

KDM5A (1) = settings: sheet "Array Heatmap"; GST-tagged KDM5A (1); arrays performed twice, total replicate number n = 4
Description: as §1, §2, §3

KDM5A (3) = settings: sheet "Array Heatmap"; GST-tagged KDM5A (3); arrays performed twice, total replicate number n = 4
Description: as §1, §2, §3

MORC3 (CW) = settings: sheet "Array Heatmap"; GST-tagged MORC3 (CW); arrays performed twice, total replicate number n = 4
Description: as §1, §2, §3

BAZ2B = settings: sheet "Array Heatmap"; GST-tagged BAZ2B; arrays performed twice, total replicate number n = 4
Description: as §1, §2, §3

CHD5 (PCC) = settings: sheet "Array Heatmap"; GST-tagged CHD5 (PCC); arrays performed twice, total replicate number n = 4
Description: as §1, §2, §3

TRIM66 (PB) = settings: sheet "Array Heatmap"; GST-tagged TRIM66 (PB); arrays performed twice, total replicate number n = 4
Description: as §1, §2, §3

DIDO1 = settings: sheet "Array Heatmap"; GST-tagged DIDO1; arrays performed twice, total replicate number n = 4
Description: as §1, §2, §3

ING3 = settings: sheet "Array Heatmap"; GST-tagged ING3; arrays performed twice, total replicate number n = 4
Description: as §1, §2, §3

ING2 = settings: sheet "Array Heatmap"; GST-tagged ING2; arrays performed twice, total replicate number n = 4
Description: as §1, §2, §3

RAG2 = settings: sheet "Array Heatmap"; GST-tagged RAG2; arrays performed twice, total replicate number n = 4
Description: as §1, §2, §3

PHF2 = settings: sheet "Array Heatmap"; GST-tagged PHF2; arrays performed twice, total replicate number n = 4
Description: as §1, §2, §3

ING4 = settings: sheet "Array Heatmap"; GST-tagged ING4; arrays performed twice, total replicate number n = 4
Description: as §1, §2, §3

PHF23 = settings: sheet "Array Heatmap"; GST-tagged PHF23; arrays performed twice, total replicate number n = 4
Description: as §1, §2, §3

PHRF1 (RP) = settings: sheet "Array Heatmap"; GST-tagged PHRF1 (RP); arrays performed twice, total replicate number n = 4
Description: as §1, §2, §3

KDM5B (3) = settings: sheet "Array Heatmap"; GST-tagged KDM5B (3); arrays performed twice, total replicate number n = 4
Description: as §1, §2, §3

SP140L = settings: sheet "Array Heatmap"; GST-tagged SP140L; arrays performed twice, total replicate number n = 4
Description: as §1, §2, §3

KDM5B (1) = settings: sheet "Array Heatmap"; GST-tagged KDM5B (1); arrays performed twice, total replicate number n = 4
Description: as §1, §2, §3

Substance	Array Heatmap signal, CHD4 (PPCC) (CHD4 (PPCC))	Array Heatmap signal, AIRE (PP) (AIRE (PP))	Array Heatmap signal, ING5 (ING5)	Array Heatmap signal, BPTF (PB) (BPTF (PB))	Array Heatmap signal, PHF21A (PHF21A)	Array Heatmap signal, DPF2 (PPC2W2) (DPF2 (PPC2W2))	Array Heatmap signal, CHD5 (PPCC) (CHD5 (PPCC))	Array Heatmap signal, TAF3 (TAF3)	Array Heatmap signal, KDM7A (KDM7A)	Array Heatmap signal, ING1 (ING1)	Array Heatmap signal, PHF13 (PHF13)	Array Heatmap signal, MLL5 (MLL5)	Array Heatmap signal, KDM4C (TTP) (KDM4C (TTP))	Array Heatmap signal, PHF8 (PHF8)	Array Heatmap signal, KDM5A (1) (KDM5A (1))	Array Heatmap signal, KDM5A (3) (KDM5A (3))	Array Heatmap signal, MORC3 (CW) (MORC3 (CW))	Array Heatmap signal, BAZ2B (BAZ2B)	Array Heatmap signal, CHD5 (PCC) (CHD5 (PCC))	Array Heatmap signal, TRIM66 (PB) (TRIM66 (PB))	also measured
H3 15-34: H3 15-34	0.5968	0.5155	0.4109	0.3761	0.5191	0.6945	0.6174	0.3059	0.4439	0.5616	0.6527	0.5742	0.5661	0.3827	0.5387	0.4281	0.3679	0.514	0.8306	0.5952	Array Heatmap signal, DIDO1 (DIDO1): 0.6822; Array Heatmap signal, ING3 (ING3): 0.5057; Array Heatmap signal, ING2 (ING2): 0.6111; Array Heatmap signal, RAG2 (RAG2): 0.2601; Array Heatmap signal, PHF2 (PHF2): 0.4604; Array Heatmap signal, ING4 (ING4): 0.5265; Array Heatmap signal, PHF23 (PHF23): 0.5205; Array Heatmap signal, PHRF1 (RP) (PHRF1 (RP)): 0.4582; Array Heatmap signal, KDM5B (3) (KDM5B (3)): 0.4984; Array Heatmap signal, SP140L (SP140L): 0.3812; Array Heatmap signal, KDM5B (1) (KDM5B (1)): 0.7112
H3 30-49: H3 30-49	0.528	0.3585	0.2813	0.2984	0.4117	0.6079	0.4615	0.2243	0.3271	0.4722	0.5208	0.4726	0.4088	0.3204	0.3827	0.3525	0.3313	0.368	0.7179	0.5425	Array Heatmap signal, DIDO1 (DIDO1): 0.6094; Array Heatmap signal, ING3 (ING3): 0.4287; Array Heatmap signal, ING2 (ING2): 0.5897; Array Heatmap signal, RAG2 (RAG2): 0.2065; Array Heatmap signal, PHF2 (PHF2): 0.4841; Array Heatmap signal, ING4 (ING4): 0.3885; Array Heatmap signal, PHF23 (PHF23): 0.4894; Array Heatmap signal, PHRF1 (RP) (PHRF1 (RP)): 0.3713; Array Heatmap signal, KDM5B (3) (KDM5B (3)): 0.3902; Array Heatmap signal, SP140L (SP140L): 0.3311; Array Heatmap signal, KDM5B (1) (KDM5B (1)): 0.5482
